# Laboratory results: patent publication US8389569B2, “Polyspirane compounds, application thereof in the treatment of malaria or toxoplasmosis and method for preparing same” (Universite Joseph Fourier, priority 2007, dated 2013)
# Where two headings read alike, the source gives them in different places.
# How the values were obtained:
# [1] = tested on: Toxoplasma (RH-β1 strain) in HFF (Human Foreskin Fibroblast) cells; assay: Antitoxoplasmic activity in vitro, colorimetric microtitre proliferation test; assay type: cell-based, Toxoplasma gondii
# Experimental: The test implemented here is a colorimetric microtitre test. A monolayer of HFF (Human Foreskin Fibroblast) cells is infected, in a synchronous manner, by the parasite (10^4 parasites per well, RH-β1 strain). After washing, increasing doses (from 50 nM to 100 μM) of compound are added, except to the control well (addition, or no addition, of DMSO). After incubation for 48 hours, the β-galactosidase activity is measured by the addition of a substrate of the enzyme, chlorophenol red β-D-galactopyranoside (CPRG). The plates are again incubated (from 30 min to 16 h at 37° C.) before being read at 570 and 630 nm.
# [2] = tested on: Plasmodium falciparum 3D7 strain (chloroquine-sensitive); assay: Antimalarial activity in vitro, [3H]-hypoxanthine isotopic microtest; assay type: cell-based; conditions: asynchronous culture of infected erythrocytes, 48 hours + 18 hours [3H]-hypoxanthine, read-out: Plasmodium Proliferation test 3D7 strain (IC 50)
# Experimental: Before experimentation, parasites of the 3D7 strain (chloroquine-sensitive, […] de Waal H. A. and F. […] ATCC no.: MRA-102) of Plasmodium falciparum are maintained in culture according to the Trager and Jansen method (Trager and Jansen, 1976). The antimalarial activity is measured in vitro on an asynchronous culture of erythrocytes infected with Plasmodium falciparum according to a modified method ([…] et al., 2003) based on the Desjardins isotopic microtest (Desjardins et al., 1979). […] After incubation for 48 hours, 0.5 μCi [^3H]-hypoxanthine (a precursor necessary for the synthesis of the radiolabelled nucleic acids of the parasite) are added to each microtitre plate well. After incubation for 18 hours, the hypoxanthine incorporation reaction is stopped and the cells lysed by direct freezing at -80° C. After thawing, the parasitic macromolecules, including the radiolabelled nucleic acids, are collected on a filter by means of a cell collector. A scintillation cocktail is added to the filter and the incorporated radioactivity is then measured with a scintillation counter. The radioactive background noise is measured starting from non-infected erythrocytes and subtracted from each filter measurement. The viability of the parasites treated with the compound to be tested is measured by their ability to synthesize nucleic acids from a radiolabelled precursor ([H^3]-hypoxanthine) in comparison with the control parasites cultured in the absence of the compound and is expressed as a percentage of the control. The measurements are analyzed by means of the Graphpad Prism software and the IC50 (concentration of compound able to inhibit 50% of the parasites' growth in vitro) is determined graphically. The results obtained appear in the form of IC50 in the table and are the result of two experiments carried out independently (different parasite cultures, different dilutions) in duplicate.
# [3] = tested on: synchronized Plasmodium falciparum parasites (ring, trophozoite, schizont); assay: Minimum contact time necessary for cytotoxicity as a function of the parasitic stage (time-course); assay type: cell-based; conditions: 20×IC50, contact 30 min to 9 h; for activity on the different blood stages of the parasite (FIG. 11): viability as % of control; for speed and reversibility of the action (FIG. 11): washed, viability read at next cycle
# Experimental: A culture of Plasmodium falciparum parasites is synchronized with VarioMACS (which retains the mature forms, which synthesize a pigment: haemozoin). After the culture has been passed through a VarioMACS column for 6 h, the synchronization range of the parasites is restricted by a second synchronization with 5% sorbitol (which retains only the young, so-called ring stage) at time t0, i.e. a short time after the invasion of healthy erythrocytes by the merozoites originating from the schizonts obtained by synchronization with the VarioMACS. The parasites are then brought into contact during each stage (ring, then trophozoite then schizont) with a fixed concentration of compound (20×IC50 previously defined by the above protocol) and for variable periods of time (30 min, 1 h 30 min, 3 h, 5 h, 7 h and 9 h in the case of parasites treated in the ring stage; 30 min, 1 h 30 min, 3 h, 5 h and 7 h in the case of parasites treated in the trophozoite and schizont stage). At the end of the defined period of contact, the erythrocyte mat is washed twice in complete medium. At t0+44h, (i.e. at the start of the subsequent parasitic life cycle), the erythrocyte mats are resuspended and redistributed into 96-well plates (in sextuplicate), 0.5 μCi of tritiated [^3H]-hypoxanthine is then added to the culture medium. From then on, the treatment is the same as that of the abovementioned experiment with one difference: the results obtained appear in the form of a graph which represents the viability of the parasites expressed as a control percentage as a function of the time for which the culture is in contact with the compound to be tested.
# [4] = Toxoplasma, Fibroblast, 48 h, read-out: Toxoplasma Proliferation test (IC 50), HFF monolayer infected with RH-β1 strain, 48 hours incubation, β-galactosidase activity (CPRG)
# [5] = Plasmodium falciparum, 3D7, Erythrocyte, 66 h
# [6] = HFF monolayer infected with RH-β1 strain, 48 hours incubation, β-galactosidase activity (CPRG), read-out: Toxoplasma Proliferation test (IC 50)
Compound,"IC50 [1, 4] [nM]","IC50 [2, 5] [nM]",IC50 [2] [nM],other results
"CCCCCCCCCCCCCCCCCCOC(=O)C[C@@H]1C[C@H](O)C[C@]2(CCC3(C=CC(=O)C=C3)O2)O1 (racemic) [12c, octadecyl (2S,4S,6R)- and (2R,4R,6S)-(4-Hydroxy-11-oxo-1,7-dioxadispiro[5.1.5.2]pentadeca-9,12-dien-2-yl)-acetate]",3540,1030,–,–
"CCCCCCC(=O)OC1CC2(CC[C@]3(C=CC(=O)C=C3)O2)O[C@@]2(CC[C@]3(C=CC(=O)C=C3)O2)C1 (stereo partly drawn) [16b, (8R,10R,21S)-Heptanoate of 7,9,11-trioxatetraspiro[5.1.1.1.5^12.2^10.3^8.2^6]tetracosa-1,4,13,16-dien-3,15-on-21-yl]",–,–,331,–
"CCCCCCCCCCCCCC(=O)CC(=O)OC1C[C@]2(CCC3(C=CC(=O)C=C3)O2)O[C@]2(CCC3(C=CC(=O)C=C3)O2)C1 (stereo partly drawn) [16e, (8R,10S,21S)- and (8S,10R,21R)-3-Oxohexadecanoate of 7,9,11-trioxatetraspiro[5.1.1.1.5^12.2^10.3^8.2^6]tetracosa-1,4,13,16-dien-3,15-on-21-yl]",–,–,122,–
"CCCCCCC(=O)OC1CC2(CC[C@]3(C=CC(=O)C=C3)O2)O[C@@]2(CC[C@]3(C=CC(=O)C=C3)O2)C1 (mixture of isomers) [16a, (8R,10S,21S)- and (8S,10R,21R)-Heptanoate of 7,9,11-trioxatetraspiro[5.1.1.1.5^12.2^10.3^8.2^6]tetracosa-1,4,13,16-dien-3,15-on-21-yl]",–,343,–,–
"CCCCCCCCCCCCCCCCCCOC(=O)C[C@@H]1C[C@@H](O)C[C@]2(CCC3(C=CC(=O)C=C3)O2)O1 (racemic) [10c, octadecyl (2S,4R,6R)- and (2R,4S,6S)-(4-Hydroxy-11-oxo-1,7-dioxadispiro[5.1.5.2]pentadeca-9,12-dien-2-yl)-acetate]",2400,770,–,–
"CCCCCCCCCCCCC[C@@H]1C[C@H](O)C[C@]2(CCC3(C=CC(=O)C=C3)O2)O1 [Natural aculeatin B, aculeatin B, reference compound]",–,–,454,"IC50 [1, 6]: 365 nM"
"CCCOC(=O)C[C@@H]1C[C@@H](O)C[C@]2(CCC3(C=CC(=O)C=C3)O2)O1 (mixture of isomers) [10a, propyl (2S,4R,6R)- and (2R,4S,6S)-(4-Hydroxy-1′-oxo-1,7-dioxadispiro[5.1.5.2]pentadeca-9,12-dien-2-yl)-acetate]",–,–,1840,"IC50 [1, 6]: 500 nM"
"CCCCCCCCCCCCCCCCCCOC(=O)C[C@@H]1C[C@H](O)C[C@@]2(CCC3(C=CC(=O)C=C3)O2)O1 (racemic) [13c, octadecyl (2S,4S,6S)- and (2R,4R,6R)-(4-Hydroxy-11-oxo-1,7-dioxadispiro[5.1.5.2]pentadeca-9,12-dien-2-yl)-acetate]",3520,1130,–,–
"CCCCCCCCCCCCC[C@@H]1C[C@@H](O)C[C@]2(CCC3(C=CC(=O)C=C3)O2)O1 [Natural aculeatin A, aculeatin A, reference compound]",–,–,288,"IC50 [1, 6]: 309 nM"
"CCCCCCCCCCCCCC(=O)OC1CC2(CC[C@]3(C=CC(=O)C=C3)O2)O[C@@]2(CC[C@]3(C=CC(=O)C=C3)O2)C1 (mixture of isomers) [16c, (8R,10S,21S)- and (8S,10R,21R)-Tetradecanoate of 7,9,11-trioxatetraspiro[5.1.1.1.5^12.2^10.3^8.2^6]tetracosa-1,4,13,16-dien-3,15-on-21-yl]",346,81.5,–,"activity on the different blood stages of the parasite (FIG. 11) [3]: active on the different blood stages (rings, trophozoites and schizonts); speed and reversibility of the action (FIG. 11) [3]: extremely rapid and is not reversible"
6-epi-aculeatin D [reference compound],–,–,451,"IC50 [1, 6]: 377 nM"
"CCCCCCCCCCOC(=O)CC1CC(O)C[C@@]2(CCC3(C=CC(=O)C=C3)O2)O1 (mixture of isomers) [11b, (2S,4R,6S)- and decyl (2R,4S,6R)-(4-Hydroxy-11-oxo-1,7-dioxadispiro[5.1.5.2]pentadeca-9,12-dien-2-yl)-acetate]",1640,1360,–,–
"O=C1C=C[C@]2(C=C1)CCC1(CC(O)C[C@]3(CC[C@@]4(C=CC(=O)C=C4)O3)O1)O2 (stereo partly drawn) [4b, (8R,10R,21S)-21-Hydroxy-7,9,11-trioxatetraspiro[5.1.1.1.5^12.2^10.3^8.2^6]tetracosa-1,4,13,16-dien-3,15-one]",1500,584,–,–
"O=C1C=CC2(C=C1)CC[C@]1(CC(O)C[C@@]3(CCC4(C=CC(=O)C=C4)O3)O1)O2 (stereo partly drawn) [4a, (8R,10S,21S)- and (8S,10R,21R)-21-Hydroxy-7,9,11-trioxatetraspiro[5.1.1.1.5^12.2^10.3^8.2^6]tetracosa-1,4,13,16-dien-3,15-one]",–,–,414,"IC50 [1, 6]: 173 nM"
"CCCCCCN(CCCCCC)C(=O)C[C@@H]1C[C@@H](O)C[C@]2(CCC3(C=CC(=O)C=C3)O2)O1 (racemic) [10e, (2S,4R,6R)- and (2R,4S,6S)—N,N-dihexyl-2-(4-hydroxy-11-oxo-1,7-dioxadispiro[5.1.5.2]pentadeca-9,12-dien-2-yl)-acetamide]",–,899,–,–
"CCCCCCCCCCCCCC(=O)OC1CC2(CC[C@]3(C=CC(=O)C=C3)O2)O[C@@]2(CC[C@]3(C=CC(=O)C=C3)O2)C1 (stereo partly drawn) [16d, (8R,10R,21S)-Tetradecanoate of 7,9,11-trioxatetraspiro[5.1.1.1.5^12.2^10.3^8.2^6]tetracosa-1,4,13,16-dien-3,15-on-21-yl]",–,–,91.7,"IC50 ([1]; read-out: Toxoplasma Proliferation test (IC 50), HFF monolayer infected with RH-β1 strain, 48 hours incubation, β-galactosidase activity (CPRG)): 636 nM; activity on the different blood stages of the parasite (FIG. 11) [3]: active on the different blood stages (rings, trophozoites and schizonts); speed and reversibility of the action (FIG. 11) [3]: extremely rapid and is not reversible"
"CCCCCCCCCCOC(=O)C[C@@H]1C[C@@H](O)C[C@]2(CCC3(C=CC(=O)C=C3)O2)O1 (racemic) [10b, decyl (2S,4R,6R)- and (2R,4S,6S)-(4-Hydroxy-11-oxo-1,7-dioxadispiro[5.1.5.2]pentadeca-9,12-dien-2-yl)-acetate]",341,654,–,–
